Data reported in ChEMBL document CHEMBL1909046, “DrugMatrix in vitro pharmacology data”.

Key:
[1] = target: C-C chemokine receptor type 2 (Homo sapiens, UniProt P41597); format: cell membranes, CHO-K1, Membrane; conditions: cho-k1; also: in other assays of this panel Not Active means under 50% inhibition at 10 µM
[2] = target: C-C chemokine receptor type 5 (Homo sapiens, UniProt P51681); format: cell membranes, HEK293, Membrane; conditions: hek293; also: in other assays of this panel Not Active means under 50% inhibition at 10 µM
C-C chemokine receptor type 5, sequence (P51681 whole entry): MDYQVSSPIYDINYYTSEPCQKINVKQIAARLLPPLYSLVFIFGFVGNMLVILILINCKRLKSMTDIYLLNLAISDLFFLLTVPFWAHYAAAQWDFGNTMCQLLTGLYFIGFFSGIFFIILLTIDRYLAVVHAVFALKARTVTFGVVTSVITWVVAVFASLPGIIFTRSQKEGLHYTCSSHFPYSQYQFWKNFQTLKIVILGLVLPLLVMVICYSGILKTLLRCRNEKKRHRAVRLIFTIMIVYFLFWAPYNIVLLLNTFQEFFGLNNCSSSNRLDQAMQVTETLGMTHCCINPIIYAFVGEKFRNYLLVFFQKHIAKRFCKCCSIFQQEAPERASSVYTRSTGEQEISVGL

[3] = DRUGMATRIX: GABAA, Flunitrazepam, Central radioligand binding (ligand: [3H] Flunitrazepam); format: cell membranes, Rattus norvegicus, Wistar, Brain, Membrane; conditions: Not Active = under 50% inhibition at 10 µM
[4] = DRUGMATRIX: Glutamate, AMPA radioligand binding (ligand: [3H] AMPA); format: cell membranes, Rattus norvegicus, Wistar, Cerebral cortex, Membrane; conditions: Not Active = under 50% inhibition at 10 µM
[5] = DRUGMATRIX: Glutamate, Kainate radioligand binding (ligand: [3H] Kainic acid); format: cell membranes, Rattus norvegicus, Wistar, Brain, Membrane; conditions: Not Active = under 50% inhibition at 10 µM
[6] = target: T1, Muscarinic acetylcholine receptor M4 (Homo sapiens, UniProt P08173); format: cell membranes, CHO-K1, Membrane; also: in other assays of this panel Not Active means under 50% inhibition at 10 µM
T1 sequence (P08173 whole entry): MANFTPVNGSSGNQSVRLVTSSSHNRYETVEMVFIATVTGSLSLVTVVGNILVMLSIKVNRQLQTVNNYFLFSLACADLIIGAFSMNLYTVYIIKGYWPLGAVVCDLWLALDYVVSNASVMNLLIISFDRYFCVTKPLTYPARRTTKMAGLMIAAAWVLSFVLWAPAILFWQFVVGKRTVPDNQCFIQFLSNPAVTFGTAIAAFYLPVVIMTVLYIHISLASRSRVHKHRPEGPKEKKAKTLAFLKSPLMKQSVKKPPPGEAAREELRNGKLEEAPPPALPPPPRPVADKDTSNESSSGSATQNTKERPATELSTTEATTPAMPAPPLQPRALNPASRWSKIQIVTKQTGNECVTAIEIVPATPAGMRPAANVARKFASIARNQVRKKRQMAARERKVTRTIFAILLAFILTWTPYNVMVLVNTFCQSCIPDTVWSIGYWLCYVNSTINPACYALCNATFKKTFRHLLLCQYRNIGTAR

[7] = DRUGMATRIX: Platelet-Derived Growth Factor (PDGF) radioligand binding (ligand: [125I] PDGF); format: cell-based; conditions: nih3t3; Not Active = under 50% inhibition at 10 µM
Estrogen receptor beta = Estrogen receptor beta (Homo sapiens, UniProt Q92731); conditions: sf9; also: in other assays of this panel Not Active means under 50% inhibition at 10 µM
Estrogen receptor beta, sequence (Q92731 whole entry): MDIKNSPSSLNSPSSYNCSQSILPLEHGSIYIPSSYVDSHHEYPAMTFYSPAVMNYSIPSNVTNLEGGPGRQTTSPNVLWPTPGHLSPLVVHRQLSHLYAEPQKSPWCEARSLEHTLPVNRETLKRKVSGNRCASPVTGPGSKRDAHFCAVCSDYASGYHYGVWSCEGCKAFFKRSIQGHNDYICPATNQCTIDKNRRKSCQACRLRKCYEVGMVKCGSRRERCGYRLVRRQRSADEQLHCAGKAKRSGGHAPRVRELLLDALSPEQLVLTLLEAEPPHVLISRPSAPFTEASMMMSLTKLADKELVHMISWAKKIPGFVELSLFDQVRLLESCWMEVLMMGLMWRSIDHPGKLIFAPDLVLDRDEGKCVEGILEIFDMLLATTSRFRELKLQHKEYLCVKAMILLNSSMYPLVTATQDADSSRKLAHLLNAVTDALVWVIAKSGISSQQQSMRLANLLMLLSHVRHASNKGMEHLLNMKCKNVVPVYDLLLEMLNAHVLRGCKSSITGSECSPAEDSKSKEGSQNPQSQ

C-C chemokine receptor type 2, sequence (P41597 whole entry): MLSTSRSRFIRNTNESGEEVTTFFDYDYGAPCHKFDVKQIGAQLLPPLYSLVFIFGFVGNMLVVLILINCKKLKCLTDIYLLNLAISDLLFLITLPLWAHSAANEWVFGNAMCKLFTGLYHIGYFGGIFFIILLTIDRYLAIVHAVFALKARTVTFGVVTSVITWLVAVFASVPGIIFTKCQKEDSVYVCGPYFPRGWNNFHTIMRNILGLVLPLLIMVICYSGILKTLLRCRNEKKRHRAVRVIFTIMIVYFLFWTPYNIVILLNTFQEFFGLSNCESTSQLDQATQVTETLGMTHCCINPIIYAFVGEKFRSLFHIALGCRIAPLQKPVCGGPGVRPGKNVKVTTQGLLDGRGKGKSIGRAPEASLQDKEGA

Row | Molecule | IC50 [1] | IC50 [2] | IC50 [3] | Ki [3] | IC50 [4] | Ki [4] | IC50 [5] | Ki [5] | IC50 ([6]; read-out: IC50) | Ki ([6]; read-out: Ki) | IC50 [7] | Ki [7] | IC50 (Estrogen receptor beta) | IC50 ([6]; cho-k1) | Ki [1] | Ki [2] | Ki ([6]; cho-k1) | Ki (Estrogen receptor beta)
1 | CCc1c2c(nc3ccc(OC(=O)N4CCC(N5CCCCC5)CC4)cc13)-c1cc3c(c(=O)n1C2)COC(=O)[C@]3(O)CC [IRINOTECAN] | Not Active | Not Active | Not Active | Not Active | Not Active | Not Active | Not Active | Not Active | 1560 nM | 217 nM | Not Active | Not Active | Not Active |  |  |  |  | 
2 | CC(C(=O)O)c1cccc(C(=O)c2ccccc2)c1 (centres undefined) [KETOPROFEN] | Not Active | Not Active | Not Active | Not Active | Not Active | Not Active | Not Active | Not Active |  |  | Not Active | Not Active | Not Active | Not Active |  |  |  | 
3 | Nc1ccn([C@@H]2CS[C@H](CO)O2)c(=O)n1 [LAMIVUDINE] | Not Active | Not Active | Not Active | Not Active | Not Active | Not Active | Not Active | Not Active |  |  | Not Active | Not Active | Not Active | Not Active |  |  |  | 
4 | O=S(=O)([O-])CCS.[Na+] [MESNA] | Not Active | Not Active | Not Active | Not Active | Not Active | Not Active | Not Active | Not Active |  |  | Not Active | Not Active | Not Active | Not Active |  |  |  | 
5 | CC(=O)Nc1cccc(O)c1 [METACETAMOL] | Not Active | Not Active | Not Active | Not Active | Not Active | Not Active | Not Active | Not Active |  |  | Not Active | Not Active | Not Active | Not Active |  |  |  | 
6 | Oc1ccc(OCc2ccccc2)cc1 [MONOBENZONE] | Not Active | Not Active | Not Active | Not Active | Not Active | Not Active | Not Active | Not Active |  |  | Not Active | Not Active | Not Active | Not Active |  |  |  | 
7 | CC(C)(Oc1ccc(C2CCCc3ccccc32)cc1)C(=O)O (centres undefined) [NAFENOPIN] | Not Active | Not Active | Not Active | Not Active | Not Active | Not Active | Not Active | Not Active |  |  | Not Active | Not Active | Not Active | Not Active |  |  |  | 
8 | CC(C)[C@H]1CC[C@H](C(=O)N[C@H](Cc2ccccc2)C(=O)O)CC1 [NATEGLINIDE] | Not Active | Not Active | Not Active | Not Active | Not Active | Not Active | Not Active | Not Active |  |  | Not Active | Not Active | Not Active | Not Active |  |  |  | 
9 | CCN[C@@H]1C[C@H](N)[C@@H](O[C@H]2OC(CN)=CC[C@H]2N)[C@H](O)[C@H]1O[C@H]1OC[C@](C)(O)[C@H](NC)[C@H]1O [NETILMICIN] | Not Active | Not Active | Not Active | Not Active | Not Active | Not Active | Not Active | Not Active |  |  | Not Active | Not Active | Not Active | Not Active |  |  |  | 
10 | CCOC(=O)C1=C(C)NC(C)=C(C(=O)OC)C1c1cccc([N+](=O)[O-])c1 (centres undefined) [NITRENDIPINE] | Not Active | Not Active | Not Active | Not Active | Not Active | Not Active | Not Active | Not Active |  |  | Not Active | Not Active | Not Active | Not Active |  |  |  | 
11 | C#C[C@]1(OC(C)=O)CC[C@H]2[C@@H]3CCC4=CC(=O)CC[C@@H]4[C@H]3CC[C@@]21C [NORETHINDRONE ACETATE] | Not Active | Not Active | Not Active | Not Active | Not Active | Not Active | Not Active | Not Active |  |  | Not Active | Not Active | Not Active | Not Active |  |  |  | 
12 | COc1ccc2[nH]c([S+]([O-])Cc3ncc(C)c(OC)c3C)nc2c1 (centres undefined) [OMEPRAZOLE] | Not Active | Not Active | Not Active | Not Active | Not Active | Not Active | Not Active | Not Active |  |  | Not Active | Not Active | Not Active | Not Active |  |  |  | 
13 | Cc1nccn1CC1CCc2c(c3ccccc3n2C)C1=O (centres undefined) [ONDANSETRON] | Not Active | Not Active | Not Active | Not Active | Not Active | Not Active | Not Active | Not Active |  |  | Not Active | Not Active | Not Active | Not Active |  |  |  | 
14 | CCn1cc(C(=O)O)c(=O)c2cc(F)c(N3CCN(C)CC3)cc21 [PEFLOXACIN] | Not Active | Not Active | Not Active | Not Active | Not Active | Not Active | Not Active | Not Active |  |  | Not Active | Not Active | Not Active | Not Active |  |  |  | 
15 | CCCCOc1ccc(OCCCN2CCOCC2)cc1 [PRAMOXINE] | Not Active | Not Active | Not Active | Not Active | Not Active | Not Active | Not Active | Not Active |  |  | Not Active | Not Active | Not Active | Not Active |  |  |  | 
16 | NC(=O)c1cnccn1 [PYRAZINAMIDE] | Not Active | Not Active | Not Active | Not Active | Not Active | Not Active | Not Active | Not Active |  |  | Not Active | Not Active | Not Active | Not Active |  |  |  | 
17 | CADMIUM DICHLORIDE | Not Active | Not Active | Not Active | Not Active | Not Active | Not Active | Not Active | Not Active |  |  | Not Active | Not Active | Not Active | Not Active | Not Active | Not Active | Not Active | Not Active
